In ChEMBL document CHEMBL5126605, “Nucleic-Acid-Based Targeted Degradation in Drug Discovery” (J Med Chem, 2022):

How the values were obtained:
[1] = RIBOTAC activity at Pre-miR-21 RNA/RNase L in human MDA-MB-231 cells assessed as decrease in mature miR-21 levels by RT-qPCR analysis; type: cell-based
[2] = Binding affinity to 5' Cy5-labeled Pre-miR-210 RNA (unknown origin) incubated for 30 mins in the presence of RNase L by microscale thermophoresis analysis
[3] = Binding affinity to 5' Cy5 end-labeled DNA hairpin (unknown origin) incubated for 30 mins in the presence of RNase L by microscale thermophoresis analysis
[4] = Selectivity index, ratio of Kd for binding affinity to 5' Cy5-labeled microRNA-210 hairpin precursor (unknown origin) to Kd for binding affinity to 5' Cy5 end-labeled DNA hairpin (unknown origin) incubated for 30 mins in the presence of RNase L by microscale thermophoresis analysis
[5] = biological target: T1, Huntingtin (Homo sapiens, UniProt P42858); assay: Induction of human HTT degradation in human SH-SY5Y cells assessed as decrease in HTT-transcript levels at 125 nM; type: cell-based; set-up: scale not given: the % may be the effect or the level left
T1 sequence (P42858 whole entry): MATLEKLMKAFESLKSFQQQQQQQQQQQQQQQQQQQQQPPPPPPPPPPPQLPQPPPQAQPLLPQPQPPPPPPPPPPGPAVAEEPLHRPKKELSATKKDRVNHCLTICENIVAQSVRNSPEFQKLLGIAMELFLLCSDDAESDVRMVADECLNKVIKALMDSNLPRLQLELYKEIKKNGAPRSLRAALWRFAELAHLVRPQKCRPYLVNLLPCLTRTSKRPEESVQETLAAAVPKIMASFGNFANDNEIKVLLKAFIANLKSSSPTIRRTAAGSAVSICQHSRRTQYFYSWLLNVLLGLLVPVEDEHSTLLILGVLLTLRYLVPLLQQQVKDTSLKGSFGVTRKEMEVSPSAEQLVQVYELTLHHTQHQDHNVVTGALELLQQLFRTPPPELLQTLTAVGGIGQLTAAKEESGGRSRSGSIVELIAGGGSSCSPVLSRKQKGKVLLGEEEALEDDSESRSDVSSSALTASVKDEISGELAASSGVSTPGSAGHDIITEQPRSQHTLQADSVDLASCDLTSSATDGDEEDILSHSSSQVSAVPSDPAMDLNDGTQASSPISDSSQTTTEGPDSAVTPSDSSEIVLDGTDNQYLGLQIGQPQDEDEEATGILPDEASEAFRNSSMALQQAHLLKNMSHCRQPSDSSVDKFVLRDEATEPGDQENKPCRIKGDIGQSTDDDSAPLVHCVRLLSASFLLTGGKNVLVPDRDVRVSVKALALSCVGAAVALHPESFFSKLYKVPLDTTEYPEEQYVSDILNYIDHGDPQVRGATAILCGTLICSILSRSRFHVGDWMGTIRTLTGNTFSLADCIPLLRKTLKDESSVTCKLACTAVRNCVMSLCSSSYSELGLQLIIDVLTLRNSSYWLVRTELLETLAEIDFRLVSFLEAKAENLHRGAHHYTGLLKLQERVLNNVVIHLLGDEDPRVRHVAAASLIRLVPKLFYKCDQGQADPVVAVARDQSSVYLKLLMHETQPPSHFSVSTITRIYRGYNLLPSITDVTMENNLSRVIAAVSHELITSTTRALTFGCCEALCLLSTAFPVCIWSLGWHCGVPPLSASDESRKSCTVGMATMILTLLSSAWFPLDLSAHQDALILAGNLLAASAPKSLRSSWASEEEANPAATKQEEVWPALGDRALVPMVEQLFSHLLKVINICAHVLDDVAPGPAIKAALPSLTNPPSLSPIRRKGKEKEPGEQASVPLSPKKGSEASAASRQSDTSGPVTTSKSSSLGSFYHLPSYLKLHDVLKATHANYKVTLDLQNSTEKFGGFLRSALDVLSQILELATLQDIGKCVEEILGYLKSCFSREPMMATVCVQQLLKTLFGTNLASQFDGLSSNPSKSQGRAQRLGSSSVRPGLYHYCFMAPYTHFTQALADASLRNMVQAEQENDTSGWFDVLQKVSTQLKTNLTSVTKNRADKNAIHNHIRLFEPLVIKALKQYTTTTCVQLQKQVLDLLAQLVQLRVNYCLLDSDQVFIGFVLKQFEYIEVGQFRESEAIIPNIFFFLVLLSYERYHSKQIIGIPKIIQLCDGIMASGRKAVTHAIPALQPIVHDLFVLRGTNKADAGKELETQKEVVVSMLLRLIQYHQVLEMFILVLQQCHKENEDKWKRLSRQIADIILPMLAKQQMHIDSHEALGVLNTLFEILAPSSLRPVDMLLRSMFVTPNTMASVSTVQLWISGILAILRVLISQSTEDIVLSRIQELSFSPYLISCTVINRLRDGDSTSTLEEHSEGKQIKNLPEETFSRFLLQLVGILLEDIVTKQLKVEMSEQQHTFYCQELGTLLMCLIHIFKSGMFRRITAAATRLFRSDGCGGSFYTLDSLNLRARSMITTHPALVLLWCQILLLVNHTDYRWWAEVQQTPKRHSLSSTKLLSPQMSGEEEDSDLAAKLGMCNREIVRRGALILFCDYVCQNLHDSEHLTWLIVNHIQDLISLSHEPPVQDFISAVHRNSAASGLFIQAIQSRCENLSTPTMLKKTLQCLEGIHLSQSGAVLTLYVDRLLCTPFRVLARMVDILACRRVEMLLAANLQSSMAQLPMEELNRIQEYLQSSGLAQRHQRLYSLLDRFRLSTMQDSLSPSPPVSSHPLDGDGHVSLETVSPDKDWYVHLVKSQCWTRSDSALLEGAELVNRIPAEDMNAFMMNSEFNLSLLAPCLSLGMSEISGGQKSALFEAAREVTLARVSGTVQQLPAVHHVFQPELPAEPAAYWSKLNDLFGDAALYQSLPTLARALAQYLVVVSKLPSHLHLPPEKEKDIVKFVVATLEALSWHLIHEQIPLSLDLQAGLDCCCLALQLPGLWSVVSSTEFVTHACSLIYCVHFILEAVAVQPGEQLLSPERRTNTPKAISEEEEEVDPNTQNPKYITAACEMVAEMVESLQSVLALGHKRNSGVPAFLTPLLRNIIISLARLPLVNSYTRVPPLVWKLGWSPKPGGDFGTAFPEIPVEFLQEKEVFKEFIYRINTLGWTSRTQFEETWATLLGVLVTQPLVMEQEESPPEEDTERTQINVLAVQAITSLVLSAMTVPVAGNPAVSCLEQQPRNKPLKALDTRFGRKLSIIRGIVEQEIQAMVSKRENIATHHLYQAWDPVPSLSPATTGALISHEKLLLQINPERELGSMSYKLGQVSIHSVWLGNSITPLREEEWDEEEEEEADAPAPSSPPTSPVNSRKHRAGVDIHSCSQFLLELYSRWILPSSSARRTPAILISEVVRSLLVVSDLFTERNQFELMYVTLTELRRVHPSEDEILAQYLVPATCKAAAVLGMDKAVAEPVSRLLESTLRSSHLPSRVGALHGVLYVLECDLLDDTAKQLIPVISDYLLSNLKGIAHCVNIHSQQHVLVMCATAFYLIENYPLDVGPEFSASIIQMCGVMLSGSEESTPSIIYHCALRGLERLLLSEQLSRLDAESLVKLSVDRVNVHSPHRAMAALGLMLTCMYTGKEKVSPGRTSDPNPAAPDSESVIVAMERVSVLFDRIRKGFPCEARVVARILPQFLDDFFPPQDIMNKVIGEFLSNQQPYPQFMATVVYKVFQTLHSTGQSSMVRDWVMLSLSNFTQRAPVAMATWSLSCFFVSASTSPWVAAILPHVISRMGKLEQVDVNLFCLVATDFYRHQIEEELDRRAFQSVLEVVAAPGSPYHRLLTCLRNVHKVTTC

[6] = biological target: T1, Huntingtin; assay: Induction of human HTT degradation in human SH-SY5Y cells assessed as decrease in normal HTT protein levels at 125 nM by Western blot analysis; type: cell-based; set-up: scale not given: the % may be the effect or the level left
[7] = biological target: T1, Huntingtin; assay: Inhibition of HTT (unknown origin)
[8] = tested on: MDA-MB-231; assay: RIBOTAC activity at Pre-miR-21 RNA/RNase L in human MDA-MB-231 cells assessed as decrease in mature miR-21 levels at 0.2 uM by RT-qPCR analysis; type: cell-based; set-up: scale not given: the % may be the effect or the level left
[9] = tested on: MDA-MB-231; assay: Potency index, ratio of RIBOTAC activity of test compound to RIBOTAC activity of Dovitinib at Pre-miR-21 RNA/RNase L in human MDA-MB-231 cells assessed as decrease in mature miR-21 levels by RT-qPCR analysis; type: cell-based
[10] = Binding affinity to Cy5-labeled SARS-CoV-2 Attenuator hairpin RNA incubated for 20 mins by microscale thermophoresis analysis; set-up: species or system Severe acute respiratory syndrome coronavirus 2
[11] = tested on: MDA-MB-231; assay: RIBOTAC activity at Pre-miR-21 RNA/RNase L in human MDA-MB-231 cells assessed as decrease in mature miR-21 levels at 5 uM by RT-qPCR analysis; type: cell-based; set-up: scale not given: the % may be the effect or the level left
[12] = biological target: T2, von Hippel-Lindau disease tumor suppressor/Bromodomain-containing protein 4 (Homo sapiens, UniProt O60885+P40337); assay: PROTAC activity at VHL/BRD4 in human MCF7 cells assessed as BRD4 degradation measured after 24 hrs by Western blot analysis; type: cell-based
T2 sequence (P40337 whole entry, looked up, other chains not shown): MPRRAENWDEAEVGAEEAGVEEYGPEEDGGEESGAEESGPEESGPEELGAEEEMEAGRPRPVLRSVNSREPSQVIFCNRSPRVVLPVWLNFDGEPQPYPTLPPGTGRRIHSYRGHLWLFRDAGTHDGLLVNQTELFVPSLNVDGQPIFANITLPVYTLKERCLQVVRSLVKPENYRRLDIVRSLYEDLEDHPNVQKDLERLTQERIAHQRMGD

[13] = biological target: T2, von Hippel-Lindau disease tumor suppressor/Bromodomain-containing protein 4; assay: PROTAC activity at VHL/BRD4 in human MCF7 cells assessed as BRD4 degradation by measuring maximum efficacy at 50 nM measured after 24 hrs by Western blot analysis relative to control; type: cell-based
[14] = tested on: MCF7; assay: Antitumor activity human MCF7 cells xenografted in nude mouse assessed as tumor growth inhibition at 10 mg/kg, iv administered every other day for 21 days; type: functional; details: MCF7, 504 h, time 21 day, read-out: TGI

With `CCCN(CC(=O)N(CCC)CC(=O)N(CCC)CC(=O)N(CC(=O)NCCOCCOCCOCCOc1ccc(/C=C2\SC(Nc3ccccc3)=C(C(=O)OCC)C2=O)cc1O)Cc1cn(CCCNC(=O)CCCOc2ccc(-c3nc4ccc(-c5ccc(N6CCN(C)CC6)cc5)cc4[nH]3)cc2)nn1)C(=O)CN(Cc1cn(CCCNC(=O)CCCOc2ccc(-c3nc4cc(-c5ccc(N6CCN(C)CC6)cc5)ccc4[nH]3)cc2)nn1)C(C)=O` the IC50 [1] was 50 nM.

`CN1CCN(c2ccc3nc(-c4ccc5[nH]c(-c6cccc(OCCCC(=O)NCCCN=[N+]=[N-])c6)nc5c4)[nH]c3c2)CC1` showed a Kd [2] of 160 nM, a Kd [3] of 620 nM and a Ratio [4] of 5.

`CN1CCN(c2ccc3nc(-c4ccc5[nH]c(-c6cccc(OCCCC(=O)NCCCOCC(O)COP(=O)(O)O[C@@H]7[C@H](O)[C@@H](COP(=O)(O)O[C@@H]8[C@H](O)[C@@H](COP(=O)(O)O[C@@H]9[C@H](O)[C@@H](COP(=O)(O)O[C@@H]%10[C@H](O)[C@@H](COP(=O)(O)O)O[C@H]%10n%10cnc%11c(N)ncnc%11%10)O[C@H]9n9cnc%10c(N)ncnc%109)O[C@H]8n8cnc9c(N)ncnc98)O[C@H]7n7cnc8c(N)ncnc87)c6)nc5c4)[nH]c3c2)CC1` (some centres not stated) showed a Kd [2] of 340 nM.

With `CC1(C)CC(Oc2ccc(-c3ccc(-c4cn[nH]c4)cc3O)nn2)CC(C)(C)N1` the Activity [5] was 95% and the Activity [6] was 53%.

Work on `CCN1CCC(c2cc3c(F)cc(-c4cc(C)c5nc(C)cn5n4)cc3nn2)CC1` yielded an IC50 [7] of 8 nM.

`CCOC(=O)C1=C(Nc2ccccc2)S/C(=C\c2ccc(OCCOCCOCCOCCNC(=O)NCCN3CCN(c4ccc5nc(-c6c(N)c7c(F)cccc7[nH]c6=O)[nH]c5c4)CC3)c(O)c2)C1=O` gave an Activity [8] of 30% and a Ratio [9] of 5.

Compound `CNc1nc(Nc2cccc(C(=O)O)c2)nc2ccccc12` has a Kd [10] of 11 nM.

`CC1(C)CC(Oc2ccc(-c3ccc(-c4ccnc(O)c4)cc3O)nn2)CC(C)(C)N1` gave an IC50 [7] of 40 nM.

Compound `CN1CCN(c2ccc3nc(-c4c(N)c5c(F)cccc5[nH]c4=O)[nH]c3c2)CC1` has an Activity [11] of 30%.

Compound `Cc1ncsc1-c1ccc([C@H](C)NC(=O)[C@@H]2C[C@@H](O)CN2C(=O)[C@H](NC(=O)COCCOCCOCCNC(=O)C[C@@H]2N=C(c3ccc(Cl)cc3)c3c(sc(C)c3C)-n3c(C)nnc32)C(C)(C)C)cc1` has an EC50 [12] of 13 nM, an Emax [13] greater than 90% and an inhibition in vivo at 10 mg/kg [14] of 59.8%.

For `CCN1CCC(c2cc(C)c3nc(-c4ccc5nn(C)cc5c4)cc(=O)n3c2)CC1`, the IC50 [7] was 80 nM.
